Data from US9642831B2, “Substituted chromanes and method of use” (AbbVie S.á.r.l., priority 2014, dated 2017).

Target: F508delCFTR (Homo sapiens, UniProt P13569, DEL508-508)
Experiment: Cell Surface Expression-Horse Radish Peroxidase (CSE-HRP) assay
Format: cell-based
Set-up: expressed in transfected cells; host or cells: CFBE41o- human lung derived epithelial cell line, doxycycline-inducible
Conditions: CFBE4lo-F508delCFTR-HRP cells; for EC50: 18-24 hours at 33° C., 8-point curve, highest concentration 20 μM, luminescence readout
Method in brief: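 Following 18-24 h compound exposure at 33° C. Expression was doxycycline-induced beforehand. % activity versus DMSO and a 3 μM corrector control gave maximum activity and EC50 from a variable-Hill sigmoidal fit.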

[1] = maximum % activity at any tested concentration, normalized to on-plate positive control (3 μM Example 1)

Chain of F508delCFTR (P13569 with tags, fused parts or gaps DEL508-508): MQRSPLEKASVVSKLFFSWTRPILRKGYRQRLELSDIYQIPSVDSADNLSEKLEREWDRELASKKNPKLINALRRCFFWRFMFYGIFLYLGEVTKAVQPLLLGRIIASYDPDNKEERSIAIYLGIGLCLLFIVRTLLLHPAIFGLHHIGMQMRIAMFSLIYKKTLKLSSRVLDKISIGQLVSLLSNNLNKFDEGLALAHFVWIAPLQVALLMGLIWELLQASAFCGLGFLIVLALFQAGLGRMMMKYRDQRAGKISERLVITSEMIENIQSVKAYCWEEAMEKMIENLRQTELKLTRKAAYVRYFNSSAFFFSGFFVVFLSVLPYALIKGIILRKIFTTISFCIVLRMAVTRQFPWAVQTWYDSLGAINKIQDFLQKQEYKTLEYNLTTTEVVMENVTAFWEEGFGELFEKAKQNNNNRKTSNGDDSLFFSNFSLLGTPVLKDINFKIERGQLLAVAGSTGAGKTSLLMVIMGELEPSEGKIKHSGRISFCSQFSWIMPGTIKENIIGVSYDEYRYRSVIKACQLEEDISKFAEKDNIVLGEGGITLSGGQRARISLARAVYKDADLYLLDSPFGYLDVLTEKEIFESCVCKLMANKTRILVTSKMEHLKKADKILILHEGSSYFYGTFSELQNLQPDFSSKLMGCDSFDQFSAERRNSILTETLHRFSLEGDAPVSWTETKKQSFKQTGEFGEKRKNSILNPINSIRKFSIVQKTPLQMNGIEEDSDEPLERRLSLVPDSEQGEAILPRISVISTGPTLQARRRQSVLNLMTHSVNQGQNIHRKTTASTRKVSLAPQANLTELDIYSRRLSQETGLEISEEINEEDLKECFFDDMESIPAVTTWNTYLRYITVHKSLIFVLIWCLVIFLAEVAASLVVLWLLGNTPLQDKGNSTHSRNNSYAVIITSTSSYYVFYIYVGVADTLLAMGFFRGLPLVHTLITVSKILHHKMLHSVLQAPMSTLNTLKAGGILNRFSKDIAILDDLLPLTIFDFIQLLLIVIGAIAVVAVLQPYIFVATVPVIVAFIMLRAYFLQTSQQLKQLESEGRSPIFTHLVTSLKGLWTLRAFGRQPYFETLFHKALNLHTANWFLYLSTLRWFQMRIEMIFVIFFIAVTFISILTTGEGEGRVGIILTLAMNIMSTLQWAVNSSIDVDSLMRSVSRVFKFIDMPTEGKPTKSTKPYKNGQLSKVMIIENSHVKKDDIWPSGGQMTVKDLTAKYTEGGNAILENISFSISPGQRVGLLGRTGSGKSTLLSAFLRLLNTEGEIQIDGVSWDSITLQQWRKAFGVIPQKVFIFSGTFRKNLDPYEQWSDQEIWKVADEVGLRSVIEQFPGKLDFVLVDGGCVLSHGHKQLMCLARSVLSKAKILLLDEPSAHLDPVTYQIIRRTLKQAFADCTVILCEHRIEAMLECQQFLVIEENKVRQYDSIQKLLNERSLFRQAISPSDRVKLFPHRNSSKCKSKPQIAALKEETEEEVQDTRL

With `COc1ccc2c(c1)O[C@@H](C(=O)N1CCN(CCO)CC1)C[C@H]2NC(=O)C1(c2ccc3c(c2)OC(F)(F)O3)CC1` (racemic) [Example 169, rac-1-(2,2-difluoro-1,3-benzodioxol-5-yl)-N-[(2R,4R)-2-{[4-(2-hydroxyethyl)piperazin-1-yl]carbonyl}-7-methoxy-3,4-dihydro-2H-chromen-4-yl]cyclopropanecarboxamide] as the compound, how does the EC50 read?
Its EC50 is 4900 nM.

What about the Emax [1] of the same compound?
Its Emax is 38%.

`O=C(O)c1cccc([C@H]2C[C@@H](NC(=O)C3(c4ccc5c(c4)OC(F)(F)O5)CC3)c3ccc(OCc4ccccc4)cc3O2)c1` [Example 98, 3-[(2R,4R)-7-(benzyloxy)-4-({[1-(2,2-difluoro-1,3-benzodioxol-5-yl)cyclopropyl]carbonyl}amino)-3,4-dihydro-2H-chromen-2-yl]benzoic acid] was tested. Which EC50 did it give?
The EC50 was 570 nM.

What about the Emax [1] of the same compound?
Its Emax is 102%.

For `COc1ccc2c(c1)O[C@@H](c1nc(C(=O)O)cs1)C[C@H]2NC(=O)C1(c2ccc3c(c2)OC(F)(F)O3)CC1` (stereo in doubt) [Example 156, rel-2-[(2R,4R)-4-({[1-(2,2-difluoro-1,3-benzodioxol-5-yl)cyclopropyl]carbonyl}amino)-7-methoxy-3,4-dihydro-2H-chromen-2-yl]-1,3-thiazole-4-carboxylic acid], which EC50 is on record?
The EC50 was 1230 nM.

What about the Emax [1] of the same compound?
Its Emax is 112%.

How did the EC50 turn out when `COc1ccc2c(c1)O[C@@H](C(=O)NC(CO)c1ccccc1OC)C[C@H]2NC(=O)C1(c2ccc3c(c2)OC(F)(F)O3)CC1` (mixture of isomers) [Example 178, rac-(2R,4R)-4-({[1-(2,2-difluoro-1,3-benzodioxol-5-yl)cyclopropyl]carbonyl}amino)-N-[2-hydroxy-1-(2-methoxyphenyl)ethyl]-7-methoxy-3,4-dihydro-2H-chromene-2-carboxamide] was run?
The EC50 was 740 nM.

What about the Emax [1] of the same compound?
Its Emax is 64%.

Which EC50 does the source give for `COC(=O)c1cccc([C@H]2C[C@@H](NC(=O)C3(c4ccc5c(c4)OC(F)(F)O5)CC3)c3ccc(F)cc3O2)c1` [Example 39, methyl 3-[(2R,4R)-4-({[1-(2,2-difluoro-1,3-benzodioxol-5-yl)cyclopropyl]carbonyl}amino)-7-fluoro-3,4-dihydro-2H-chromen-2-yl]benzoate] here?
Its EC50 is 1720 nM.

And the Emax [1]?
The Emax was 82%.

Which EC50 does the source give for `COc1ccc2c(c1)O[C@@H](C(=O)Nc1ccccc1O)C[C@@H]2NC(=O)C1(c2ccc3c(c2)OC(F)(F)O3)CC1` (racemic) [Example 182, rac-(2R,4S)-4-({[1-(2,2-difluoro-1,3-benzodioxol-5-yl)cyclopropyl]carbonyl}amino)-N-(2-hydroxyphenyl)-7-methoxy-3,4-dihydro-2H-chromene-2-carboxamide] here?
The EC50 was 800 nM.

And the Emax [1]?
Its Emax is 46%.

Which EC50 does the source give for `COC(=O)c1ccc([C@H]2C[C@@H](NC(=O)C3(c4ccc5c(c4)OC(F)(F)O5)CC3)c3ccc(OC)cc3O2)nc1` (stereo in doubt) [Example 162, methyl rel-6-[(2R,4R)-4-({[1-(2,2-difluoro-1,3-benzodioxol-5-yl)cyclopropyl]carbonyl}amino)-7-methoxy-3,4-dihydro-2H-chromen-2-yl]pyridine-3-carboxylate] here?
Its EC50 is 170 nM.

What about the Emax [1] of the same compound?
The Emax was 105%.

For `O=C(NC1CC(c2cccc(Cl)c2)Oc2ccccc21)C1(c2ccc3c(c2)OC(F)(F)O3)CC1` (stereo not shown) [Example 70, N-[2-(3-chlorophenyl)-3,4-dihydro-2H-chromen-4-yl]-1-(2,2-difluoro-1,3-benzodioxol-5-yl)cyclopropanecarboxamide], which EC50 is on record?
Its EC50 is 6840 nM.

And the Emax [1]?
Its Emax is 94%.

`Cc1ccc2c(c1)O[C@@H](c1cccc(C(=O)NCC(O)C(F)(F)F)c1)C[C@H]2NC(=O)C1(c2ccc3c(c2)OC(F)(F)O3)CC1` (stereo partly drawn) [Example 50, 3-[(2R,4R)-4-({[1-(2,2-difluoro-1,3-benzodioxol-5-yl)cyclopropyl]carbonyl}amino)-7-methyl-3,4-dihydro-2H-chromen-2-yl]-N-(3,3,3-trifluoro-2-hydroxypropyl)benzamide] was tested. Which EC50 did it give?
Its EC50 is 860 nM.

What about the Emax [1] of the same compound?
The Emax was 101%.

`COc1ccc2c(c1)C(NC(=O)C1(c3ccc4c(c3)OC(F)(F)O4)CC1)C(Cc1ccc(OC)c(OC)c1)CO2` (stereo not shown) [Example 72, 1-(2,2-difluoro-1,3-benzodioxol-5-yl)-N-[3-(3,4-dimethoxybenzyl)-6-methoxy-3,4-dihydro-2H-chromen-4-yl]cyclopropanecarboxamide] was tested. Which EC50 did it give?
The EC50 was 2500 nM.

And the Emax [1]?
Its Emax is 71%.

For “N-[2-(3,4-dichlorophenyl)-3,4-dihydro-2H-chromen-4-yl]-1-(2,2-difluoro-1,3-benzodioxol-5-yl)cyclopropanecarboxamide [Example 66]”, which EC50 is on record?
Its EC50 is 6100 nM.

And the “Maximum % activity (%)” value [1]?
Its value is 89%.

For `COC(=O)c1cccc(C2CC(NC(=O)C3(c4ccc5c(c4)OC(F)(F)O5)CC3)c3ccc(OC)nc3O2)c1` (mixture of isomers) [Example 37, methyl 3-[4-({[1-(2,2-difluoro-1,3-benzodioxol-5-yl)cyclopropyl]carbonyl}amino)-7-methoxy-3,4-dihydro-2H-pyrano[2,3-b]pyridin-2-yl]benzoate], which EC50 is on record?
The EC50 was 3050 nM.

What about the Emax [1] of the same compound?
Its Emax is 88%.

Which results are given for `COc1ccc2c(c1)O[C@@H](C(=O)N1CCC(F)(F)CC1)C[C@@H]2NC(=O)C1(c2ccc3c(c2)OC(F)(F)O3)CC1` (racemic) [Example 193, rac-1-(2,2-difluoro-1,3-benzodioxol-5-yl)-N-{(2R,4S)-2-[(4,4-difluoropiperidin-1-yl)carbonyl]-7-methoxy-3,4-dihydro-2H-chromen-4-yl}cyclopropanecarboxamide]?
EC50: 470 nM; Emax [1]: 68%

Which EC50 does the source give for `O=C(N[C@@H]1CC(CF)(CF)Oc2cc(F)ccc21)C1(c2ccc3c(c2)OC(F)(F)O3)CC1` [Example 79, 1-(2,2-difluoro-1,3-benzodioxol-5-yl)-N-[(4R)-7-fluoro-2,2-bis(fluoromethyl)-3,4-dihydro-2H-chromen-4-yl]cyclopropanecarboxamide] here?
Its EC50 is 7250 nM.

And the Emax [1]?
The Emax was 117%.

What does the source list for `Cc1ccc2c(c1)O[C@@H](c1cccc(C(=O)N3CC(C)(CO)C3)c1)C[C@H]2NC(=O)C1(c2ccc3c(c2)OC(F)(F)O3)CC1` [Example 55, 1-(2,2-difluoro-1,3-benzodioxol-5-yl)-N-[(2R,4R)-2-(3-{[3-(hydroxymethyl)-3-methylazetidin-1-yl]carbonyl}phenyl)-7-methyl-3,4-dihydro-2H-chromen-4-yl]cyclopropanecarboxamide]?
EC50: 2110 nM; Emax [1]: 101%

With `Cc1ccc2c(c1)O[C@@H](c1cccc(C(=O)NC[C@@H](O)CO)c1)C[C@H]2NC(=O)C1(c2ccc3c(c2)OC(F)(F)O3)CC1` [Example 48, 3-[(2R,4R)-4-({[1-(2,2-difluoro-1,3-benzodioxol-5-yl)cyclopropyl]carbonyl}amino)-7-methyl-3,4-dihydro-2H-chromen-2-yl]-N-[(2R)-2,3-dihydroxypropyl]benzamide] as the compound, how does the EC50 read?
The EC50 was 1000 nM.

What about the Emax [1] of the same compound?
The Emax was 104%.

For `COc1ccc2c(c1)OCC(Cc1ccc(OC)c(OC)c1)C2NC(=O)C1(c2ccc3c(c2)OC(F)(F)O3)CC1` (stereo not shown) [Example 91, 1-(2,2-difluoro-1,3-benzodioxol-5-yl)-N-[3-(3,4-dimethoxybenzyl)-7-methoxy-3,4-dihydro-2H-chromen-4-yl]cyclopropanecarboxamide], which EC50 is on record?
The EC50 was 2710 nM.

And the Emax [1]?
The Emax was 82%.

How did the EC50 turn out when `O=C(O)c1cccc([C@H]2C[C@H](NC(=O)C3(c4ccc5c(c4)OC(F)(F)O5)CC3)c3cccnc3O2)c1` (racemic) [Example 32, rac-3-[(2R,4S)-4-({[1-(2,2-difluoro-1,3-benzodioxol-5-yl)cyclopropyl]carbonyl}amino)-3,4-dihydro-2H-pyrano[2,3-b]pyridin-2-yl]benzoic acid] was run?
Its EC50 is ≥ 20000 nM.

And the Emax [1]?
Its Emax is 16%.

With `O=C(O)COc1ccc2c(c1)O[C@@H](c1cccc(C(=O)O)c1)C[C@H]2NC(=O)C1(c2ccc3c(c2)OC(F)(F)O3)CC1` [Example 96, 3-[(2R,4R)-7-(carboxymethoxy)-4-({[1-(2,2-difluoro-1,3-benzodioxol-5-yl)cyclopropyl]carbonyl}amino)-3,4-dihydro-2H-chromen-2-yl]benzoic acid] as the compound, how does the EC50 read?
Its EC50 is ≥ 20000 nM.

What about the Emax [1] of the same compound?
Its Emax is 15%.

How did the EC50 turn out when `COC(=O)c1ccc2c(c1)[C@H](NC(=O)C1(c3ccc4c(c3)OC(F)(F)O4)CC1)C[C@H](C1CCCC(OC)C1)O2` (stereo partly drawn) [Example 46, methyl (2R,4R)-4-({[1-(2,2-difluoro-1,3-benzodioxol-5-yl)cyclopropyl]carbonyl}amino)-2-(3-methoxycyclohexyl)-3,4-dihydro-2H-chromene-6-carboxylate] was run?
Its EC50 is 5140 nM.

What about the Emax [1] of the same compound?
The Emax was 27%.

How did the EC50 turn out when `C[C@@]1(C(F)F)C[C@@H](NC(=O)C2(c3ccc4c(c3)OC(F)(F)O4)CC2)c2ccc(Cl)cc2O1` [Example 83, N-[(2S,4R)-7-chloro-2-(difluoromethyl)-2-methyl-3,4-dihydro-2H-chromen-4-yl]-1-(2,2-difluoro-1,3-benzodioxol-5-yl)cyclopropanecarboxamide] was run?
Its EC50 is 2720 nM.

And the Emax [1]?
Its Emax is 106%.

Which results are given for `Cc1ccc2c(c1)O[C@@H](c1cccc(C(=O)N3CC[C@@H](O)C3)c1)C[C@H]2NC(=O)C1(c2ccc3c(c2)OC(F)(F)O3)CC1` [Example 49, 1-(2,2-difluoro-1,3-benzodioxol-5-yl)-N-[(2R,4R)-2-(3-{[(3R)-3-hydroxypyrrolidin-1-yl]carbonyl}phenyl)-7-methyl-3,4-dihydro-2H-chromen-4-yl]cyclopropanecarboxamide]?
EC50: 970 nM; Emax [1]: 105%

Which results are given for `COc1ccc2c(c1)O[C@@H](C(=O)N(CCO)Cc1ccccc1)C[C@H]2NC(=O)C1(c2ccc3c(c2)OC(F)(F)O3)CC1` (racemic) [Example 167, rac-(2R,4R)—N-benzyl-4-({[1-(2,2-difluoro-1,3-benzodioxol-5-yl)cyclopropyl]carbonyl}amino)-N-(2-hydroxyethyl)-7-methoxy-3,4-dihydro-2H-chromene-2-carboxamide]?
EC50: 1080 nM; Emax [1]: 66%
